Assays:
[1] = Study 202 post-hoc APRI and FIB-4 fibrosis index scores; type: in vivo, human
Description: APRI and FIB-4 scores were calculated. Change in score category from baseline (BL) to Weeks 24 and 48 was assessed in patients with non-missing data. Correlations between changes from BL in APRI and FIB-4 scores, and MCP-1 (CCR2 ligand) and sCD14 (inflammatory biomarker) levels were evaluated.

[2] = Text: Subjects with a history of HIV-2, hepatitis B and/or C, cirrhosis of the liver or any known active or chronic active liver disease were excluded from the study.
Most AEs were mild or moderate (Grade 1 or Grade 2). […] None of the Grade ≥3 AEs (preferred terms) were reported in more than 1 subject. Table 28 provides an overview of deaths, SAES, AEs, AEs by severity, AEs related to study medication, and AE leading to discontinuation.

Compound: O=C1Nc2ccc(Cl)cc2[C@@](C#CC2CC2)(C(F)(F)F)O1 [EFV, efavirenz, reference compound]
- APRI 0.5-1.5, patients ([1]; Baseline): 4%
- APRI <0.5, patients ([1]; Baseline): 96%
- FIB-4 <1.45, patients ([1]; Baseline): 100%
- subjects with decrease in FIB-4 score by one category ([1]; EFV arm, Weeks 24 and 48): no subject
- APRI <0.5, patients ([1]; Week 24): 100%
- APRI decreased 1 category from baseline, patients ([1]; Week 24): 5%
- FIB-4 <1.45, patients ([1]; Week 24): 100%
- APRI <0.5, patients ([1]; Week 48): 100%
- APRI decreased 1 category from baseline, patients ([1]; Week 48): 6%
- FIB-4 1.45-3.25, patients ([1]; Week 48): 6%
- FIB-4 <1.45, patients ([1]; Week 48): 94%
- Deaths ([2]; All CVC (N = 115), EFV (N = 28)): 0 n
- SAE: Suicidal ideation ([2]; All CVC (N = 115), EFV (N = 28), through Week 48): 1 n
- Grade 3 or 4 AE: Suicidal ideation ([2]; All CVC (N = 115), EFV (N = 28; Grade 4 event)): 1 n
- AE leading to discontinuation: Abnormal dreams ([2]; human, in vivo, 48 week): 1 n
- AE leading to discontinuation: Aggression ([2]; human, in vivo, 48 week): 0 n
- AE leading to discontinuation: Anxiety ([2]; human, in vivo, 48 week): 1 n
- AE leading to discontinuation: Depression ([2]; human, in vivo, 48 week): 1 n
- AE leading to discontinuation: Dermatitis allergic ([2]; human, in vivo, 48 week): 1 n
- AE leading to discontinuation: Ear and labyrinth disorders ([2]; human, in vivo, 48 week): 1 n
- AE leading to discontinuation: Insomnia ([2]; human, in vivo, 48 week): 3 n
- AE leading to discontinuation: Psychiatric disorders ([2]; human, in vivo, 48 week): 3 n
- AE leading to discontinuation: Rash ([2]; human, in vivo, 48 week): 1 n
- AE leading to discontinuation: Skin and subcutaneous tissue disorders ([2]; human, in vivo, 48 week): 2 n
- AE leading to discontinuation: Tachyphrenia ([2]; human, in vivo, 48 week): 1 n
- AE leading to discontinuation: Thinking abnormal ([2]; human, in vivo, 48 week): 0 n
- AE leading to discontinuation: Tinnitus ([2]; human, in vivo, 48 week): 1 n
- Depression, % ([2]; human, in vivo, 48 week): (11%)
- Diarrhoea, % ([2]; human, in vivo, 48 week): (11%)
- Fatigue, % ([2]; human, in vivo, 48 week): (4%)
- Nausea, % ([2]; human, in vivo, 48 week): (21%)
- Rash, % ([2]; human, in vivo, 48 week): (18%)
- Subjects with AEs leading to discontinuation of study medication ([2]; human, in vivo, 48 week): 6 n
- Subjects with AEs related to study medication ([2]; human, in vivo, 48 week): 20 n
- Subjects with AEs, by worst grade severity: Grade 1 ([2]; human, in vivo, 48 week): 10 n
- Subjects with AEs, by worst grade severity: Grade 2 ([2]; human, in vivo, 48 week): 13 n
- Subjects with AEs, by worst grade severity: Grade 3 ([2]; human, in vivo, 48 week): 3 n
- Subjects with AEs, by worst grade severity: Grade 4 ([2]; human, in vivo, 48 week): 0 n
- Syphilis, % ([2]; human, in vivo, 48 week): (11%)
- Upper respiratory tract infection, % ([2]; human, in vivo, 48 week): (7%)
- AE leading to discontinuation: Disturbance in attention ([2]; human, in vivo, 48 weeks): 1 n
- AE leading to discontinuation: Dizziness ([2]; human, in vivo, 48 weeks): 2 n
- AE leading to discontinuation: Eye disorders ([2]; human, in vivo, 48 weeks): 1 n
- AE leading to discontinuation: Gastrointestinal disorders ([2]; human, in vivo, 48 weeks): 1 n
- AE leading to discontinuation: General disorders and administration site conditions ([2]; human, in vivo, 48 weeks): 0 n
- AE leading to discontinuation: Hypoaesthesia ([2]; human, in vivo, 48 weeks): 1 n
- AE leading to discontinuation: Malaise ([2]; human, in vivo, 48 weeks): 0 n
- AE leading to discontinuation: Musculoskeletal and connective tissue disorders ([2]; human, in vivo, 48 weeks): 1 n
- AE leading to discontinuation: Musculoskeletal discomfort ([2]; human, in vivo, 48 weeks): 1 n
- AE leading to discontinuation: Nausea ([2]; human, in vivo, 48 weeks): 1 n
- AE leading to discontinuation: Nervous system disorders ([2]; human, in vivo, 48 weeks): 4 n
- AE leading to discontinuation: Photophobia ([2]; human, in vivo, 48 weeks): 1 n
- AEs leading to discontinuation of study medication, % ([2]; human, in vivo, 48 weeks): 21%
- AEs leading to discontinuation of study medication, subjects ([2]; human, in vivo, 48 weeks): 6 subjects
- Abnormal dreams, % ([2]; human, in vivo, 48 weeks): (21%)
- Any AE leading to discontinuation of study drug ([2]; human, in vivo, 48 weeks): 6 n
- Any Grade 3 AE ([2]; human, in vivo, 48 weeks): 3 n
- Any Grade 4 AE ([2]; human, in vivo, 48 weeks): 1 n
- Any SAE ([2]; human, in vivo, 48 weeks): 1 n
- Dizziness, % ([2]; human, in vivo, 48 weeks): (29%)
- Grade 3 or 4 AE: Abdominal pain ([2]; human, in vivo, 48 weeks): 0 n
- Grade 3 or 4 AE: Blindness unilateral ([2]; human, in vivo, 48 weeks): 0 n
- Grade 3 or 4 AE: Blood creatine phosphokinase increased ([2]; human, in vivo, 48 weeks): 0 n
- Grade 3 or 4 AE: Cardiac disorders ([2]; human, in vivo, 48 weeks): 0 n
- Grade 3 or 4 AE: Corneal infection ([2]; human, in vivo, 48 weeks): 0 n
- Grade 3 or 4 AE: Depression ([2]; human, in vivo, 48 weeks): 1 n
- Grade 3 or 4 AE: Dermatitis allergic ([2]; human, in vivo, 48 weeks): 1 n
- Grade 3 or 4 AE: Ear and labyrinth disorders ([2]; human, in vivo, 48 weeks): 1 n
- Grade 3 or 4 AE: Eye disorders ([2]; human, in vivo, 48 weeks): 0 n
- Grade 3 or 4 AE: Gastrointestinal disorders ([2]; human, in vivo, 48 weeks): 0 n
- Grade 3 or 4 AE: General disorders and administration site conditions ([2]; human, in vivo, 48 weeks): 0 n
- Grade 3 or 4 AE: Infections and infestations ([2]; human, in vivo, 48 weeks): 0 n
- Grade 3 or 4 AE: Investigations ([2]; human, in vivo, 48 weeks): 1 n
- Grade 3 or 4 AE: Palpitations ([2]; human, in vivo, 48 weeks): 0 n
- Grade 3 or 4 AE: Psychiatric disorders ([2]; human, in vivo, 48 weeks): 1 n
- Grade 3 or 4 AE: Pyrexia ([2]; human, in vivo, 48 weeks): 0 n
- Grade 3 or 4 AE: Skin and subcutaneous tissue disorders ([2]; human, in vivo, 48 weeks): 1 n
- Grade 3 or 4 AE: Stress ([2]; human, in vivo, 48 weeks): 0 n
- Grade 3 or 4 AE: Tinnitus ([2]; human, in vivo, 48 weeks): 1 n
- Grade 3 or 4 AE: Weight decreased ([2]; human, in vivo, 48 weeks): 1 n
- Insomnia, % ([2]; human, in vivo, 48 weeks): (14%)
- Lymphadenopathy, % ([2]; human, in vivo, 48 weeks): (14%)
- Nasopharyngitis, % ([2]; human, in vivo, 48 weeks): (4%)
- SAE: Blindness unilateral ([2]; human, in vivo, 48 weeks): 0 n
- SAE: Corneal infection ([2]; human, in vivo, 48 weeks): 0 n
- SAE: Depression ([2]; human, in vivo, 48 weeks): 1 n
- SAE: Eye disorders ([2]; human, in vivo, 48 weeks): 0 n
- SAE: Gastroenteritis ([2]; human, in vivo, 48 weeks): 0 n
- SAE: Infections and infestations ([2]; human, in vivo, 48 weeks): 0 n
- SAE: Psychiatric disorders ([2]; human, in vivo, 48 weeks): 1 n
- Subjects with serious AEs ([2]; human, in vivo, 48 weeks): 1 n
- Subjects with ≥1 AE ([2]; human, in vivo, 48 weeks): 27 n

Reference: US20200368247A1, “CENICRIVIROC FOR THE TREATMENT OF FIBROSIS” (Tobira Therapeutics, Inc., priority 2014, published 2020)
